Test in all cases: growth of human tumour cells (NCI), 48 h
Assay [1] concerns A549.
Assay [2] deals with SNB-19.
Assay [3] relates to Hs-578T.
Assay [4] relates to MDA-N.
Assay [5] concerns SK-MEL-5.
The test system of assay [6] is SN12C.
Assay [7] relates to SR.
Assay [8] concerns RXF 393.
The test system of assay [9] is K562.
The test system of assay [10] is SK-MEL-28.
Assay [11] relates to KM12.
The subject of assay [12] is OVCAR-4.
In assay [13] the test system is OVCAR-5.
Assay [14] concerns HT-29.
Assay [15] deals with HL-60.
In assay [16] the test system is T47D.
For assay [17], the system named is NCI/ADR-RES.
For assay [18], the system named is DU-145.

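Method: 48-hour compound exposure of cells in 96-well plates, five concentrations, linear interpolation of endpoints. The concentration for 50% growth inhibition is given as GI50.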 Activity calls are given as the source filed them. Cut-off read from the data, not from the text of the source: active = GI50 up to about 1.1 µM and inactive = higher. Bounds are passed on as bounds.

Experimental findings from ChEMBL document CHEMBL1201862, “PubChem BioAssay data set” (2004) are described below.

With `CC(C)NC(=O)OCc1c(COC(=O)NC(C)C)n(C)c2c1ccc1sccc12`, the GI50 in [1] is > 36.6 µM (inactive); in assay [2], 20.8 µM (inactive); in assay [3], 13.6 µM (inactive); in [4], 17.4 µM (inactive); in assay [5] it was 9.29 µM (inactive); in [6] it was 15.9 µM (inactive). The GI50 in assay [7] was 4.19 µM (inactive); in assay [8], 12.2 µM (inactive); in assay [9], 23.4 µM (inactive); in assay [10], 18.1 µM (inactive); in [11], 15 µM (inactive); in assay [12], 12.8 µM (inactive). Also, the GI50 was 30.6 µM (inactive) in assay [13]; 24.2 µM (inactive) in assay [14]; > 100 µM (inactive) in [15]; 17.3 µM (inactive) in assay [16]; > 25.4 µM (inactive) in assay [17]; 6.78 µM (inactive) in assay [18].
As to `Cc1ccc(NC=O)c(-c2c(N)[nH]c(=S)[nH]c2=O)c1`, the GI50 in assay [1], in assay [2], in assay [3], in assay [4], in [5] and in assay [6] was > 100 µM (inactive) each time. Moreover, the GI50 in assay [7], in assay [8], in assay [9], in [11], in assay [13] and in assay [14] was > 100 µM (inactive) in each case. For the same compound, the GI50 in [15], in assay [16], in [17] and in assay [18] was > 100 µM (inactive) in each case.
Turning to `CCC1(C(=O)OC(C)(C)C)OC12C(C)CCCC2C` (stereo not given), the GI50 in assay [1] is 34.8 µM (inactive); in assay [2], 48.9 µM (inactive); in [3] it was 90.2 µM (inactive); in assay [4] it was 56.8 µM (inactive); in [5] it was 33.3 µM (inactive); in [6] it was 62.1 µM (inactive). The GI50 is 18.5 µM (inactive) in [7]; 19.8 µM (inactive) in [8]; 21.8 µM (inactive) in assay [9]; > 100 µM (inactive) in [10]; 37.3 µM (inactive) in [11]; 28.1 µM (inactive) in [12]. Further, the GI50 in assay [13] is > 100 µM (inactive); in assay [14], 39.5 µM (inactive); in [15], 17.8 µM (inactive); in [16], 32.9 µM (inactive); in assay [17] it was > 100 µM (inactive); in [18], > 100 µM (inactive).
With `C/C(=C\COc1ccc2ccc(=O)oc2c1)CCC(=O)C(C)(C)O`, the GI50 in [1] is 26.7 µM (inactive); in assay [2], 32.7 µM (inactive); in assay [3], 26.4 µM (inactive); in assay [4] it was 25.6 µM (inactive); in assay [5], 16.5 µM (inactive); in [6] it was 24.2 µM (inactive). In addition, the GI50 in assay [7] was 15.3 µM (inactive); in [8] it was 14.4 µM (inactive); in assay [9], 16.2 µM (inactive); in assay [10] it was 39.9 µM (inactive); in assay [11] it was 18.5 µM (inactive); in assay [12], 51.9 µM (inactive). Moreover, the GI50 in assay [13] is 40.8 µM (inactive); in assay [14], 23.2 µM (inactive); in assay [15], 15.2 µM (inactive); in assay [16], 29.9 µM (inactive); in assay [17], 27.9 µM (inactive); in [18], 32.1 µM (inactive).
On to `COc1cc(C[C@@]2(C)[C@@H]3CCC[C@H](CO)[C@@]3(C)CC[C@@H]2C)c(Cl)c(OC)c1`, for which the GI50 in assay [1] was 14.4 µM (inactive); in assay [2] it was 18.6 µM (inactive); in [3], 21.5 µM (inactive); in assay [4], 15.5 µM (inactive); in [5], 17 µM (inactive); in assay [6], 15.8 µM (inactive). The GI50 was 16 µM (inactive) in assay [7]; 11.6 µM (inactive) in assay [8]; 16.3 µM (inactive) in [9]; 26.2 µM (inactive) in [10]; 18.2 µM (inactive) in assay [11]; 15.8 µM (inactive) in assay [12]. The GI50 is 18.3 µM (inactive) in [13]; 13.3 µM (inactive) in assay [14]; 17.6 µM (inactive) in assay [15]; 9.53 µM (inactive) in assay [16]; 15.2 µM (inactive) in assay [17]; 16.4 µM (inactive) in assay [18].
`O=[N+]([O-])/C=C/c1c(Cl)cccc1Cl`: the GI50 is 8.63 µM (inactive) in assay [1]; 5.28 µM (inactive) in [2]; 9.44 µM (inactive) in [3]; 2.89 µM (inactive) in assay [4]; 3.13 µM (inactive) in assay [5]; 1.53 µM (inactive) in [6]. Also, the GI50 in assay [7] is 0.933 µM (active); in [8], 10.4 µM (inactive); in [9], 1.68 µM (inactive); in [10] it was 4.97 µM (inactive); in assay [11], 1.58 µM (inactive); in assay [12], 3.56 µM (inactive). Further, the GI50 in [13] is 8.95 µM (inactive); in [14], 2.45 µM (inactive); in [15], 1.24 µM (inactive); in assay [16] it was 2.06 µM (inactive); in assay [17], 1.96 µM (inactive); in assay [18], 9.06 µM (inactive).
Consider `CCN(CC)C(=S)SS(=O)(=O)c1cccc(N)c1`, for which the GI50 in assay [1], in assay [2], in assay [3], in assay [4], in assay [5] and in assay [6] was > 100 µM (inactive) each time. The GI50 in assay [7], in [8], in [9], in assay [10], in assay [11] and in [12] was > 100 µM (inactive) throughout. Also, the GI50 in assay [13], in assay [14], in assay [16], in assay [17] and in assay [18] was > 100 µM (inactive) in each case.
As for `CS(=O)(=O)N1CC(CCl)c2ccc(O)cc21` (stereo not given), the GI50 in [1] was 3.19 µM (inactive); in assay [3] it was 4.32 µM (inactive); in assay [4], 1.52 µM (inactive); in [5] it was 1.55 µM (inactive); in [6] it was 2.91 µM (inactive); in assay [7], 2.84 µM (inactive). For the same compound, the GI50 in assay [8] is 1.4 µM (inactive); in assay [9] it was 2.47 µM (inactive); in assay [10], 3.4 µM (inactive); in assay [11], 2.46 µM (inactive); in [12] it was 2.86 µM (inactive); in [13] it was 3.63 µM (inactive). Also, the GI50 was 2.86 µM (inactive) in assay [14]; 1.57 µM (inactive) in assay [15]; 7.4 µM (inactive) in assay [16]; 2.56 µM (inactive) in [17]; 3.46 µM (inactive) in [18].
As for `COc1c(O)cc2c(c1O)C(=O)/C(=C/c1ccc(O)cc1)CO2`, the GI50 is 31 µM (inactive) in assay [1]; 30.8 µM (inactive) in assay [2]; 30.2 µM (inactive) in [3]; 28.7 µM (inactive) in assay [4]; 22 µM (inactive) in [5]; 23 µM (inactive) in assay [6]. Besides, the GI50 in assay [7] is 13.5 µM (inactive); in [8], 33.7 µM (inactive); in assay [9], 28.9 µM (inactive); in assay [10], 17.7 µM (inactive); in [11] it was 13.6 µM (inactive); in assay [12], 20.1 µM (inactive). Moreover, the GI50 is 29 µM (inactive) in [13]; 20.1 µM (inactive) in [14]; 30.1 µM (inactive) in [15]; 30.8 µM (inactive) in [16]; 22.9 µM (inactive) in [17]; 27.1 µM (inactive) in assay [18].
For `Cc1ccc(C2=Nn3c(nc4sc(-c5ccccc5)cc4c3=O)SC2)cc1`, the GI50 in assay [1], in assay [3], in [4], in assay [5], in [6] and in assay [7] was > 100 µM (inactive) each time. Also, the GI50 was > 10 µM (inactive) in assay [8]; > 100 µM (inactive) in [9]; > 100 µM (inactive) in assay [10]; > 100 µM (inactive) in assay [11]; > 100 µM (inactive) in assay [12]; > 100 µM (inactive) in [13]. The GI50 in [14], in assay [15], in [16], in assay [17] and in assay [18] was > 100 µM (inactive) throughout.
Turning to `Cc1cc(S(=O)(=O)[N-]/C(=N/S(=O)(=O)c2ccc(Cl)cc2)[n+]2ccc(N(C)C)cc2)c(S)cc1Cl`, the GI50 in [3] is 54.8 µM (inactive); in assay [4], > 100 µM (inactive); in [5], > 100 µM (inactive); in [7], < 0.01 µM (active); in [8] it was 84.1 µM (inactive); in assay [9], 1.92 µM (inactive). The GI50 is > 100 µM (inactive) in assay [10]; > 100 µM (inactive) in [11]; 55.5 µM (inactive) in assay [12]; 61.5 µM (inactive) in [13]; 44.6 µM (inactive) in assay [14]; 34.8 µM (inactive) in assay [15]. In addition, the GI50 in assay [16], in assay [17] and in assay [18] was > 100 µM (inactive) in each case.
